Reference: patent publication US20180078615A1, “USE OF CCL2 TO INHIBIT ABNORMAL UTERINE BLEEDING” (UNIVERSITY OF SOUTH FLORIDA, priority 2015, published 2018)

How the values were obtained:
[1] = system: VSMCs; test: Whole genome microarray analysis (Illumina HumanHT-12 v4) of cultured VSMCs treated with progestins; format: cell-based, human; settings: VSMCs treated by MPA
Excerpt: Cultured VSMCs (n=3) treated with control medium or medium containing medroxyprogesterone acetate (MPA, 10^−7 M), or etonogestrel (ETO, 10^−7 M) were processed for whole genome analyses using Illumina Human microarray kit. After qRT-PCR confirmation of several up and down regulated genes from microarray data, Ingenuity Pathway Analysis (IPA) determined relevant upstream signaling of LAPC altered gene expression. To investigate the role of genes and relevant signaling molecules identified by IPA, VSMCs (n=3) treated with MPA or ETO±1 or 10 ng/ml recombinant CCL2 (rCCL2)±STAT1 inhibitor, 5′-methyl-thioadenosine (MTA, 100 μM) were analyzed by BrdU incorporation proliferation, TUNEL based ELISA apoptosis and Transwell insert migration assays.
VSMCs were thawed and cultured in medium 231 (M231; Life Technologies) with smooth muscle growth supplement (5% FBS; 2 ng/mL human basic fibroblast growth factor, 0.5 ng/mL human epidermal growth factor, 5 ng/mL heparin, 0.2 μg/mL insulin and 5 μg/mL BSA; Life Technologies) with 100 U/mL penicillin, 100 μg/mL streptomycin, 0.25 μg/mL fungizone. Confluent VSMCs were washed twice with 1×PBS to remove residual serum, passaged in 96-well or 6-well plates and incubated in parallel in M231 with 1% charcoal striped FBS with 0.1% ethanol (vehicle, control) or 10^−7 M MPA (Sigma-Aldrich) or 10^−7 M ETO (Organon) or 10^−7 M P4 (Sigma-Aldrich) for 15 min, 6, 48, and 72 h. VSMCs were then washed with ice-cold PBS and stored at −80° C. for further RNA and protein analyses.
Total RNA was isolated using Qiagen miRNeasy Mini Kit (Qiagen) and RNeasy MinElute Cleanup Kit (Qiagen). The quality of isolated RNAs was confirmed using an Agilent 2100 Bioanalyzer. Microarray analysis was limited to those specimens in which RNA Integrity Number exceeded 8. Microarray processes were performed in the Keck Biotechnology Resource Laboratory at Yale University (New Haven, Conn.) using Illumina Human HT-12 v4 BeadChip (Illumina). Raw data without normalization were analyzed by GeneSpring GX12.5 software (Agilent Technologies-Silicon Genetics). Normalization was performed as described (35). Genes with a fold-change >1.25 and a P value<0.05 were considered differentially expressed. Ingenuity Pathway Analysis (IPA) software (Qiagen) explored molecular and biological networks related to differentially expressed genes.

[2] = system: VSMCs; test: VSMC proliferation assay by BrdU incorporation; format: cell-based, human; settings: 10^−7 M, 48-h treatment, mean±SEM; control 0.81±0.03
Protocol: VSMCs were grown in 96-well plates or 8-well chamber slides and incubated with 10^−7 M of MPA (Sigma-Aldrich) or ETO (Organon) or P4 (Sigma-Aldrich) or vehicle±rCCL2 (R&D Systems)±STAT1 inhibitor, 5′-methyl-thioadenosine (MTA; EMD Millipore) (19) for 48 or 72 h. VSMCs were then analyzed for apoptosis by an ELISA based apoptosis kit (Roche) or cleaved-caspase 3 immunostaining. VSMC proliferation was measured by BrdU incorporation Kit (Cell Signaling). (See further details in SI Materials and Methods).
VSMCs were thawed and cultured in T-75 cell culture flasks in medium 231 (M231; Life Technologies) with smooth muscle growth supplement (5% FBS; 2 ng/mL human basic fibroblast growth factor, 0.5 ng/mL human epidermal growth factor, 5 ng/mL heparin, 0.2 μg/mL insulin and 5 μg/mL BSA; Life Technologies) with 100 U/mL penicillin, 100 μg/mL streptomycin, and 0.25 μg/mL fungizone. Confluent VSMCs were washed twice with 1×PBS to remove residual serum, and then passaged (5,000 cells per well) in 96-well plates and incubated in parallel in M231 with 1% charcoal striped FBS with 0.1% ethanol (vehicle, control), 10^−7 M MPA (Sigma-Aldrich), 10^−7 M ETO (Organon), or 10^−7 M P4 (Sigma-Aldrich)±rCCL2 (monocyte chemotactic protein-1; R&D Systems)±STAT1 inhibitor, 5′-methyl-thioadenosine (MTA; EMD Millipore) for 48 or 72 h.
BrdU (Cell Signaling) 1× in 100-μL M231 was added to each well during the final 24 h of incubation. At the end of 48- or 72-h incubation period, medium was removed and the wells washed twice with ice-cold PBS. VSMC proliferation was measured using BrdU cell proliferation Kit (Cell Signaling) at room temperature. Cells was incubated in 100 μL per well of the fixing/denaturing solution for 30 min, and then replaced by 100 μL per well BrdU detection antibody solution for 1 h. Following three rinses with wash buffer, plates were incubated in HRP-conjugated secondary antibody (100 μL per well) for 30 min. After three additional rinses with wash buffer, tetramethylbenzidine substrate solution (100 μL per well) was added for 20 min and the reaction stopped by adding 100 μL per well STOP solution. Absorbance was measured at 450 nm using Spectra Max190 microplate reader (Molecular Devices) to detect BrdU incorporation in each well.

CC(=O)O[C@]1(C(C)=O)CC[C@H]2[C@@H]3C[C@H](C)C4=CC(=O)CC[C@]4(C)[C@H]3CC[C@@]21C [MPA, medroxyprogesterone acetate]
Fold-change, ABI gene family, member 3 (NESH) binding protein (ABI3BP) [1]: −2.045
Fold-change, Actin, γ 2, smooth muscle, enteric (ACTG2) [1]: 2.761
Fold-change, Alcohol dehydrogenase 1A (class I), α polypeptide (ADH1A) [1]: 2.49
Fold-change, Bradykinin receptor B1 (BDKRB1) [1]: −2.041
Fold-change, Chemokine (C-C motif) ligand 2 (CCL2) [1]: −4.123
Fold-change, Collectin subfamily member 12 (COLEC12) [1]: −2.177
Fold-change, Complement factor B (CFB) [1]: −3.17
Fold-change, Complement factor D (adipsin) (CFD) [1]: 2.794
Fold-change, Cysteine-rich secretory protein LCCL domain containing 2, (CRISPLD2) [1]: 3.721
Fold-change, DNA-damage regulated autophagy modulator 1 (DRAM1) [1]: −2.149
Fold-change, Decorin, transcript variant A2 (DiCN) [1]: 2.515
Fold-change, EF-hand domain family, member D1 (EFHD1) [1]: 2.294
Fold-change, Fibrillin 2 (FBN2) [1]: 2.642
Fold-change, Filaggrin (FLG) [1]: −2.306
Fold-change, Glutathione peroxidase 3 (plasma) (GPX3) [1]: 2.827
Fold-change, H19, imprinted maternally expressed transcript noncoding RNA (H19) [1]: 5.441
Fold-change, Hypothetical protein FLJ40504 (FLJ40504) [1]: −2.331
Fold-change, Indolethylamine N-methyltransferase (INMT) [1]: 2.187
Fold-change, Insulin-like growth factor binding protein 2, 36 kDa (IGFBP2) [1]: 2.367
Fold-change, Interleukin 1, β (IL1B) [1]: −2.325
Fold-change, LY6/PLAUR domain containing 1, transcript variant 1 (LYPD1) [1]: −2.21
Fold-change, Latexin (LXN) [1]: −2.939
Fold-change, Leptin (obesity homolog, mouse) (LEP) [1]: 4.042
Fold-change, Matrix Gla protein, transcript variant 1 (MGP) [1]: 3.615
Fold-change, Matrix Gla protein, transcript variant 2 (MGP) [1]: 3.221
Fold-change, Natriuretic peptide precursor B (NPPB) [1]: −2.371
Fold-change, PREDICTED: keratin 18 pseudogene 13 (KRT18P13) [1]: −2.209
Fold-change, PREDICTED: similar to LYPDC1 protein (LOC100134073) [1]: −2.401
Fold-change, Pleckstrin homology-like domain, family A, member 1 (PHLDA1) [1]: −2.17
Fold-change, Potassium voltage-gated channel, shaker-related subfamily, 0 member 1, transcript variant2 (KCNAB1) [1]: −2.055
Fold-change, Prostaglandin-endoperoxide synthase 1, transcript variant 2 (PTGS1) [1]: 2.437
Fold-change, Retinoic acid receptor responder (tazarotene induced) 1, transcript variant 1, (RARRES1) [1]: −4.061
Fold-change, Retinoic acid receptor responder (tazarotene induced) 1, transcript variant 2, (RARRES1) [1]: −2.994
Fold-change, Superoxide dismutase 2, mitochondrial, transcript variant 2, (SOD2) [1]: −2.208
Fold-change, Sushi domain containing 2 (SUSD2) [1]: 2.901
Fold-change, Transmembrane protein 119 (TMEM119) [1]: 2.258
Fold-change, UDP-N-acetyl-alpha-D-galactosamine:polypeptide N-acetylgalactosaminyltransferase 12 (GALNT12) [1]: −2
Fold-change, Wingless-type MMTV integration site family, member 5A (WNT5A) [1]: 2.218
Fold-change, Collagen, type VIII, α 1, transcript variant 2 (COL8A1) ([1]; table entry 11): 2.628
Fold-change, Collagen, type VIII, alpha 1, transcript variant 2 (COL8A1) ([1]; table entry 14): 2.439
BrdU incorporation [2]: 0.31±0.02
